≈ marks a conversion by molar mass, not a printed value.

One assay concerns Mycobacterium tuberculosis.
Test: not given
It is filed as functional.
`Cc1c(NCc2nnc(-c3ccncc3)o2)c(=O)n(-c2ccccc2)n1C`: the Ratio is listed as 7.6.
On to `Cc1c(NCc2nnc(-c3ccc(N)cc3)o2)c(=O)n(-c2ccccc2)n1C`, for which the Ratio worked out at 1.4.

A further assay concerns Mycobacterium tuberculosis. As to the kind of experiment: microbe, parasite or virus in culture.
In turn, `Cc1c(NCc2nnc(-c3ccncc3)o2)c(=O)n(-c2ccccc2)n1C` came in with an MIC90 of 1.52 µM (≈ 0.551 µg/mL).
`Cc1c(NCc2nnc(COc3ccccc3)o2)c(=O)n(-c2ccccc2)n1C` came in with an MIC90 of 12.8 µM (≈ 5 µg/mL).
On to `NNC(=O)c1ccncc1` [ISONIAZID], for which the MIC90 turned out to be 11.6 µM (≈ 1.59 µg/mL).
Still for that read-out and setting: the value for `Cc1c(NCc2nnc(-c3cccs3)o2)c(=O)n(-c2ccccc2)n1C` was 13.6 µM (≈ 5 µg/mL).
As for `Cc1c(NCc2nnc(-c3ccc(N)cc3)o2)c(=O)n(-c2ccccc2)n1C`, the MIC90 stood at 8.29 µM (≈ 3.12 µg/mL).
Take `Cc1c(NCc2nnc(-c3ccccc3Cl)o2)c(=O)n(-c2ccccc2)n1C`: the MIC90 was 12.7 µM (≈ 5.01 µg/mL).
Same read-out and setting: the same measure for `Cc1c(NCc2nnc(-c3ccccc3)o2)c(=O)n(-c2ccccc2)n1C`: 13.8 µM (≈ 4.99 µg/mL).
Compound `Cc1c(NCc2nnc(Cc3ccccc3)o2)c(=O)n(-c2ccccc2)n1C` had an MIC90 of over 13.3 µM.
Same read-out and setting: the value for `Cc1ccc(-c2nnc(CNc3c(C)n(C)n(-c4ccccc4)c3=O)o2)cc1` was 13.3 µM (≈ 5 µg/mL); that for `Cc1c(NCc2nnc(-c3ccc(Cl)cc3)o2)c(=O)n(-c2ccccc2)n1C` was 12.7 µM (≈ 5.01 µg/mL).
